Source: US7507727B2, “Substituted quinobenzoxazine analogs and methods of using thereof” (Cylene Pharmaceuticals, Inc., priority 2003, dated 2009)

Molecular target: c-Myc template DNA (c-myc quadruplex)
Experiment: Quadruplex binding / stop assay (Taq polymerase arrest, capillary electrophoresis)
Details: read-out: S DATA; Table 1D, stop assay data

| IC50 [µM] | Structure (SMILES) |
| --- | --- |
| 0.75 | CN1CCN(CCCNc2ccc3c(=O)c(C(=O)NCCC4CCCN4C)cn4c3c2Oc2cc3ccccc3cc2-4)CC1 (stereo not shown) [compound 1553] |
| 6.6 | CC(C)N1CCN(c2c(F)cc3c(=O)c(C(=O)NCCN4CCCC4)cn4c3c2Oc2ccc(Cl)cc2-4)CC1 [compound 1798] |
| > 15 | O=C(c1cn2c3c(c(N4CC5CCCNC5C4)c(F)cc3c1=O)Oc1cc3ccccc3cc1-2)N1CCC(N2CCCC2)CC1 (stereo not shown) [compound 1643] |
| > 15 | O=C(NCCN1CCCC1)c1cn2c3c(c(SCCc4cnccn4)c(F)cc3c1=O)Oc1ccc(Cl)cc1-2 [compound 1783] |
| 1.81 | COc1ccc(CCNc2c(F)cc3c(=O)c(C(=O)NCCN4CCCC4)cn4c3c2Oc2cc3ccccc3cc2-4)cc1OC [compound 1756] |
| > 15 | O=C(NCCN1CCOCC1)c1cn2c3c(c(SCCc4cnccn4)c(F)cc3c1=O)Oc1cc(Cl)ccc1-2 [compound 1788] |
| > 15 | CN1CCCC1CCNC(=O)c1cn2c3c(c(NCCCCCCO)c(F)cc3c1=O)Oc1cc3ccccc3cc1-2 (stereo not shown) [compound 1675] |
| > 15 | O=C(NCCN1CCOCC1)c1cn2c3c(c(NCCN4CCCC4)c(F)cc3c1=O)Oc1ccccc1-2 [compound 1593] |
| 1.75 | CN1CCCC1CCNC(=O)c1cn2c3c(c(NCCCO)c(F)cc3c1=O)Oc1cc3ccccc3cc1-2 (stereo not shown) [compound 1678] |
| > 15 | COc1cccc(CCNC(=O)c2cn3c4c(c(N5CCC(N)C5)c(F)cc4c2=O)Oc2cc4ccccc4cc2-3)c1 (stereo not shown) [compound 1698] |
| > 15 | NC1CCN(c2c(F)cc3c(=O)c(C(=O)NCCCN4CCCC4=O)cn4c3c2Oc2cc3ccccc3cc2-4)C1 (stereo not shown) [compound 1694] |
| > 15 | O=C(NCCCN1CCOCC1)c1cn2c3c(c(NCCN4CCCC4)c(F)cc3c1=O)Oc1ccccc1-2 [compound 1592] |
| > 15 | NC1CCN(c2c(F)cc3c(=O)c(C(=O)NCCc4cccs4)cn4c3c2Oc2cc3ccccc3cc2-4)C1 (stereo not shown) [compound 1701] |
| > 15 | CC(C)(C)OC(=O)NC1CCN(c2c(F)cc3c(=O)c(C(=O)NCCCN4CCOCC4)cn4c3c2Oc2ccccc2-4)C1 (stereo not shown) [compound 1583] |
| 3 | CCN(CC)CCCC(C)NC(=O)c1cn2c3c(c(N4CCC(c5cnccn5)C4)c(F)cc3c1=O)Oc1ccccc1-2 (stereo not shown) [compound 1725] |
| > 15 | CN1CCCC1CCNC(=O)c1cn2c3c(c(NCCN4CCOCC4)c(F)cc3c1=O)Oc1ccccc1-2 (stereo not shown) [compound 1608] |
| 1 | CN(C)CC(C)(C)CNC(=O)c1cn2c3c(c(NCCCN4CCOCC4)c(F)cc3c1=O)Oc1cc3ccccc3cc1-2 [compound 1652] |
| > 15 | O=C(c1cn2c3c(c(NCCN4CCOCC4)c(F)cc3c1=O)Oc1ccccc1-2)N1CCC(N2CCCC2)CC1 [compound 1613] |
| 0.75 | CC1CCN(CCCNc2c(F)cc3c(=O)c(C(=O)NCCC4CCCN4C)cn4c3c2Oc2cc3ccccc3cc2-4)CC1 (stereo not shown) [compound 1501] |
| > 15 | COc1ccc(CCNC(=O)c2cn3c4c(c(N5CCC(N)C5)c(F)cc4c2=O)Oc2cc4ccccc4cc2-3)cc1OC (stereo not shown) [compound 1705] |
| > 15 | O=C(NCCN1CCCC1)c1cn2c3c(c(NCC4CCCO4)c(F)cc3c1=O)Oc1cc(Cl)ccc1-2 (stereo not shown) [compound 1794] |
| 0.75 | CN1CCCC1CCNC(=O)c1cn2c3c(c(N4CCC(c5ccccn5)C4)c(F)cc3c1=O)Oc1cc3ccccc3cc1-2 (stereo not shown) [compound 1507] |
| > 15 | CCOC(=O)c1cn2c3c(c(N4CCC(c5cnccn5)C4)c(F)cc3c1=O)Oc1ccc(C#N)cc1-2 (stereo not shown) [compound 1775] |
| 0.375 | CN1CCCC1CCNC(=O)c1cn2c3c(c(NCC4CCNC4)c(F)cc3c1=O)Oc1cc3ccccc3cc1-2 (stereo not shown) [compound 1617] |
| 1 | N=C(N)NCCCNC(=O)c1cn2c3c(c(N4CC5CCCNC5C4)c(F)cc3c1=O)Oc1cc3ccccc3cc1-2 (stereo not shown) [compound 1647] |

Same assay, conditions: read-out: Stop Data c-Myc μM; concentration at which 50% of the DNA was arrested (arrested:full-length 1:1)

| IC50 [µM] | Structure (SMILES) |
| --- | --- |
| 1.75 | CN(C)CCCCNc1c(F)cc2c(=O)c(C(=O)O)cn3c2c1Oc1cc2ccccc2cc1-3 [compound 8] |
| 2.5 | O=C(NCCCN1CCOCC1)c1cn2c3c(c(NCCN4CCCC4)c(F)cc3c1=O)Oc1cc3ccccc3cc1-2 [compound 69] |
| 0.75 | CN1CCCC1CCNC(=O)c1cn2c3c(c(N4CCC(NC(=O)OC(C)(C)C)C4)ccc3c1=O)Oc1cc3ccccc3cc1-2 (stereo not shown) [compound 451] |
| 1.75 | CN(C)CCCCNC(=O)c1cn2c3c(c(N)c(F)c(N4CC[C@H](N)C4)c3c1=O)Oc1cc3ccccc3cc1-2 [compound 190] |
| 1 | CC(C)(C)OC(=O)N[C@@H]1CCN(c2c(F)cc3c(=O)c(C(=O)NCCCCN=C(N)N)cn4c3c2Oc2cc3ccccc3cc2-4)C1 [compound 322] |
| 1.75 | CN1CCCC1CCNc1c(F)cc2c(=O)c(C(=O)N3CC[C@H](NC(=O)OC(C)(C)C)C3)cn3c4cc5c(cc4oc1c23)c(=O)c1ccccc15 (stereo partly shown) [compound 206] |
| 1.75 | Nc1c(F)c(N2CCC(N)C2)c2c3c1c(=O)c(C(=O)NCCN1CCOCC1)cn3-c1cc3ccccc3cc1O2 (stereo not shown) [compound 238] |
| 0.75 | CN1CCCC1CCNC(=O)c1cn2c3cc4c(cc3oc3c(NCCN5CCOCC5)c(F)cc(c1=O)c32)c(=O)c1ccccc14 (stereo not shown) [compound 422] |
| 1.75 | CC(C)(C)OC(=O)N[C@@H]1CCN(c2c(F)cc3c(=O)c(C(=O)NCCCCN)cn4c3c2Oc2cc3ccccc3cc2-4)C1 [compound 210] |
| 0.75 | CC1CCCCN1CCCNc1c(F)cc2c(=O)c(C(=O)N3CCOCC3)cn3c2c1Oc1cc2ccccc2cc1-3 (stereo not shown) [compound 393] |
| 0.375 | NC1CCN(c2c(F)cc3c(=O)c(C(=O)NCCCN4CCOCC4)cn4c5cc6c(=O)c7ccccc7c(=O)c6cc5oc2c34)C1 (stereo not shown) [compound 551] |
| 0.75 | CN1CCN(CCCNC(=O)c2cn3c4c(c(N5CC6CCCNC6C5)c(F)cc4c2=O)Oc2cc4ccccc4cc2-3)CC1 (stereo not shown) [compound 461] |
| 1.75 | CN1CCCC1CCNc1c(F)cc2c(=O)c(C(=O)O)cn3c2c1Oc1cc2ccccc2cc1-3 (stereo not shown) [compound 7] |
| 0.75 | CN1CCCC1CCNCC(=O)N[C@@H]1CCN(c2c(F)cc3c(=O)c(C(=O)NCCC4CCCN4C)cn4c3c2Oc2cc3c(cc2-4)oc2ccccc23)C1 (stereo partly shown) [compound 410] |
| 1.75 | CN1CCN(CCCNc2c(F)cc3c(=O)c(C(=O)NCCCN4CCOCC4)cn4c3c2Oc2cc3c(cc2-4)oc2ccccc23)CC1 [compound 149] |
| 1.75 | Nc1c(F)c(NCCCN2CCOCC2)c2c3c1c(=O)c(C(=O)N1CCC(N)C1)cn3-c1cc3ccccc3cc1O2 (stereo not shown) [compound 232] |
| 1.75 | CC1(C)CC(NC(=O)c2cn3c4c(c(N5CCC(NC(=O)OC(C)(C)C)C5)ccc4c2=O)Oc2cc4ccccc4cc2-3)CC(C)(C)N1 (stereo not shown) [compound 274] |
| 1.75 | CN1CCN(CCCNC(=O)c2cn3c4c(c(NCCN5CCOCC5)c(F)cc4c2=O)Oc2c-3ccc3ccccc23)CC1 [compound 130] |
| 1 | O=C(NCCN1CCOCC1)c1cn2c3cc4c(cc3oc3c(NCCN5CCOCC5)c(F)cc(c1=O)c32)c(=O)c1ccccc14 [compound 321] |

| IC50 [µM] | Structure (SMILES) |
| --- | --- |
| 0.34 | N=C(N)NCCNC(=O)c1cn2c3c(c(NCCN4CCCC4)c(F)cc3c1=O)Oc1cc3ccccc3cc1-2 [compound 561] |
| 0.75 | CN1CCCC1CCNCC(=O)N[C@@H]1CCN(c2c(F)cc3c(=O)c(C(=O)N4CCCC4)cn4c3c2Oc2cc3c(cc2-4)oc2ccccc23)C1 (stereo partly shown) [compound 412] |
| 2.5 | O=C(NCCN1CCOCC1)c1cn2c3c(c(NCCN4CCCC4)c(F)cc3c1=O)Oc1cc3ccccc3cc1-2 [compound 70] |
| 2.5 | CN(C)/C=N/C1CCN(c2c(F)cc3c(=O)c(C(=O)NCCC4CCCN4C)cn4c3c2Oc2cc3ccccc3cc2-4)C1 (stereo not shown) [compound 98] |
| 0.9 | CN(C)CCNC(=O)c1cn2c3cc4c(=O)c5ccccc5c(=O)c4cc3oc3c(N4CCN(C)CC4)c(F)cc(c1=O)c32 [compound 353] |
| 1.75 | CN1CCCC1CCNC(=O)c1cn2c3c(c(NCCN4CCCC4)c(F)cc3c1=O)Oc1c-2ccc2ccccc12 (stereo not shown) [compound 138] |
| 2.5 | CN1CCN(CCCNC(=O)c2cn3c4c(c(NCCN5CCOCC5)c(F)cc4c2=O)Oc2cc4ccccc4cc2-3)CC1 [compound 55] |
| 1.75 | CN(C)CCCCNc1c(F)cc2c(=O)c(C(=O)NCCCN3CCN(C)CC3)cn3c4cc5c(=O)c6ccccc6c(=O)c5cc4oc1c23 [compound 171] |
| 1.75 | CN1CCN(CCCNC(=O)c2cn3c4c(c(N5CC[C@@H](NC(=O)CCN6CCN(C)CC6)C5)c(F)cc4c2=O)Oc2cc4c(cc2-3)oc2ccccc24)CC1 [compound 173] |
| 0.75 | CN1CCCC1CCNC(=O)c1cn2c3c(c(NCCC4CCCN4C)ccc3c1=O)Oc1cc3ccccc3cc1-2 (stereo not shown) [compound 449] |
| 1.75 | O=C(NCCN1CCCC1)c1cn2c3c(c(NCCN4CCCC4)c(F)cc3c1=O)Oc1c-2ccc2ccccc12 [compound 139] |
| 1.75 | Nc1c(F)c(N2CCC(N)C2)c2c3c1c(=O)c(C(=O)N1CCOCC1)cn3-c1cc3ccccc3cc1O2 (stereo not shown) [compound 239] |
| 0.75 | CN1CCCC1CCNC(=O)c1cn2c3c(c(N(C)C4CCNC4)c(F)cc3c1=O)Oc1cc3ccccc3cc1-2 (stereo not shown) [compound 439] |
| 2.25 | CN1CCCC1CCNC(=O)c1cn2c3c(c(F)c(F)cc3c1=O)Oc1cc3ccccc3cc1-2 (stereo not shown) [compound 101] |
| 2.5 | CN(CCc1ccccn1)C(=O)c1ccc2c(c1)Oc1c(NCCCn3ccnc3)c(F)cc3c(=O)c(C(=O)N(C)CCc4ccccn4)cn-2c13 [compound 39] |
| 0.18 | CN(C)CCCCNC(=O)c1cn2c3cc4oc5cc([N+](=O)[O-])ccc5[nH]c4cc3oc3c(NCCC4CCCN4C)c(F)cc(c1=O)c32 (stereo not shown) [compound 585] |
| 1.75 | CN1CCCC1CCNC(=O)c1cn2c3c(c(NCCCCO)c(F)cc3c1=O)Oc1cc3ccccc3cc1-2 (stereo not shown) [compound 284] |
| 2.5 | CN1CCCC1CCNC(=O)c1cn2c3c(c(NCCN4CCOCC4)c(F)cc3c1=O)Oc1cc3ccccc3cc1-2 (stereo not shown) [compound 57] |
| 1.75 | CN1CCN(CCCNC(=O)c2cn3c4c(c(NCCCN5CCN(C)CC5)c(F)cc4c2=O)Oc2cc4c(cc2-3)oc2ccccc24)CC1 [compound 151] |

| Structure (SMILES) | IC50 [µM] |
| --- | --- |
| CN1CCCC1CCNC(=O)c1cn2c3c(c(NC4CN5CCC4CC5)c(F)cc3c1=O)Oc1cc3ccccc3cc1-2 (stereo not shown) [compound 435] | 0.75 |
